Test results published in patent US8188003B2, “Method of inducing virus tolerance of plants” (BASF Aktiengesellschaft, priority 2005, dated 2012).

Legend:
TMV [1] = test: Use example 3: leaf halves infiltrated, TMV infection 1 day after treatment, lesion area versus control; assay type: in vivo, tobacco plants (cultivar Xanthi-nc); details: 1 mM in 1% aqueous ethanol, evaluated after further 5 days
Method: (§1) Leaf halves of approx. 5-weeks-old tobacco plants (cultivar Xanthi-nc) were infiltrated with 1 mM active ingredient solution in 1% aqueous ethanol; the leaf halves of the controls were infiltrated with 1% aqueous ethanol.
Infection with TMV was carried our 1 day after treatment; the plants were evaluated after further 5 days. The data shown are the averages of the leaf areas which had died owing to viral attack (lesions) at the infection site on leaf halves treated with active ingredient or untreated leaf halves (controls):
(§2) Area of the lesions in comparison with the control: […]

TMV [2] = test: Use example 4: leaf halves infiltrated, TMV infection 2 days after treatment, lesion area versus control; assay type: in vivo, tobacco plants (cultivar Xanthi-nc); details: 1 mM in 1% aqueous ethanol, evaluated after further 5 days
Method: as §1
The procedure of use example 3 was followed, but infection was carried out 2 days after the treatment and the plants were evaluated after further 5 days.
as §2

TMV [3] = test: Use example 5: spraying the leaves with active ingredient solutions, TMV infection 5 days after treatment, lesion area versus control; assay type: in vivo, tobacco plants (cultivar Xanthi-nc); details: 2 mM with universal wetter 1:1 (w/w), sprayed, evaluated after further 4 days
Method: In each case 2 mM active ingredient were dissolved in water with the aid of a universal wetter in the ratio 1:1 (w/w) and sprayed onto the leaf halves of 5-week-old tobacco plants (cultivar Xanthi-nc) (leaf halves of the controls were sprayed with dissolved wetter only).
Infection with TMV was carried out 5 days after the treatment, and the plants were evaluated after further 4 days. The data shown are the averages of the leaf areas which had died owing to viral attack (lesions) at the infection site on leaf halves treated with active ingredient or untreated leaf halves (controls):
as §2

[4] = test system: tobacco mosaic virus (TMV, strain U1); test: Use example 1: active ingredient solution injected into tobacco leaves, TMV infection, lesion diameter; assay type: in vivo, tobacco plants (Nicotinia tabacum cv. Xanthi-nc); details: injected into leaf, infection 1 day after pretreatment, after 7 days, water control 3.55 mm
Method: (§3) For the experiments, tobacco plants (Nicotinia tabacum cv. Xanthi-nc) were grown at 25° C., an atmospheric humidity of 59% and a daily photoperiod of 16 hours (150-200 μM quanta/s^−1/m^−2) for 4 to 5 weeks in potting compost (standard soil type ED 73). Some of the plants were fed once per week by adding a commercial house-plant fertilizer (10% total nitrogen, 9% phosphate, 7% potash) to the irrigation water at the recommended rate.
(§4) The formulated active ingredient used took the form of water-dispersible granules with an active ingredient content of 20%. The concentrations used in the experiments (0.01-10 mM) are based on the active ingredient content. To prevent distribution of the active ingredient in the entire plant, the stalks of plants where a leaf had been infiltrated were removed above the treated leaf, using a sterile surgical blade.
(§5) After the application of the active ingredient, and also after infection with the virus at a later time, the plants were left to stand in the growth cabinet.
(§6) The various pretreated tobacco plants were infected with tobacco mosaic virus (TMV, strain U1). […] Five to 7 days post-infection, the diameter of 10 to 20 lesions on the leaves was determined. […]
After 7 days, the diameter of the lesions on the leaves caused by TMV was determined in millimeters [mm].

[5] = test system: tobacco mosaic virus (TMV, strain U1); test: Use example 2: one leaf half infiltrated with active ingredient solution, TMV infection, lesion diameter; assay type: in vivo, tobacco plants (Nicotinia tabacum cv. Xanthi-nc); details: after 5 days
Method: as §3, §4, §5, §6
After 5 days, the diameter of the lesions on the leaves caused by TMV was determined in millimeters [mm].

TMV [6] = test: Use example 6: plant growth and tolerance to viral infection of TMV-inoculated tomato plants after spray treatment; assay type: in vivo, Tomato plants (cultivar Gaucho)
Method: The experiments were performed in greenhouse of under appropriate growing conditions for tomatoes. Tomato plants (cultivar Gaucho) were grown in pots until development of the first two true leaves. Then the plantlets were sprayed with different concentrations of formulated Pyraclostrobin (compound I-5; commercial fungicide Cabrio Top® of BASF Aktiengesellschaft). These treatments were done either 120 hours before or following inoculation of the plantlets with TMV, representing protective and curative situation. The treatments were run with 5 replicates, each containing 3 plantlets. 30 days after last treatment the plants were analyzed for visual plant growth (altitude and dry mass) and chlorophyll content (photometric measurement of extracts). Also the virus titre was determined (ELISA).
Same letters indicate non significant differences (Tukey; P≦0.05).

Row | Compound | Area of the lesions in comparison with the control, Area in percent (TMV [1]) [%] | Area of the lesions in comparison with the control, Area In percent (TMV [2]) [%] | Area of the lesions in comparison with the control, Area in percent (TMV [3]) [%] | diameter of the lesions on the leaves caused by TMV (average) ([4]; 1 mM) [mm] | diameter of the lesions on the leaves caused by TMV (average) ([4]; 2.5 mM) [mm] | diameter of the lesions on the leaves caused by TMV (average), treated leaf zones ([5]; 0.5 mM, water control plants 3.2 mm) [mm] | diameter of the lesions on the leaves caused by TMV (average), treated leaf zones ([5]; 1 mM, water control plants 3.35 mm) [mm] | effect compared with untreated plants (TMV [6]; Curative treatment) | effect on growth inhibition and loss of leaf chlorophyll caused by TMV infection (TMV [6]; protective treatment)
1 | CNC(=O)/C(=N/OC)c1ccccc1CO/N=C(C)/C(=N/OC)C(/C)=N/OC [Compound V-16, orysastrobin] | 63.8 |  |  |  |  |  |  |  | 
2 | CNC(=O)/C(=N/OC)c1ccccc1COc1cc(C)ccc1C [II-3, dimoxystrobin] | 68.1 | 62.7 | 49.6 |  |  |  |  |  | 
3 | CO/C=C(/C(=O)OC)c1ccccc1Oc1cc(Oc2ccccc2C#N)ncn1 [VII-1, azoxystrobin] | 62.1 | 70.4 | 68.3 |  |  |  |  |  | 
4 | pyraclostrobin [Compound I-5] | 53.0 |  |  | 2.35 | 1.8 | 2.75 | 2.85 | no advantage compared with untreated plants | can prevent growth inhibition and loss of leaf chlorophyll caused by TMV infection
